According to US20140309109A1, “N-Thio-anthranilamide compounds and their use as pesticides” (BASF SE, priority 2011, published 2014):

Columns and labels:
Assay type in all cases: in vivo
[1] = tested on: Tobacco Budworm (Heliothis virescens); experiment: Tobacco budworm I (B.7b) cotton plant spray test; settings: 96 h, 4 days after treatment, larvae on sprayed cotton plants (B.7b), read-out: mortality in comparison with untreated controls
Method: B.7b Tobacco Budworm (Heliothis virescens) I
(§1) The active compounds were formulated in cyclohexanone as a 10,000 ppm solution supplied in tubes. The tubes were inserted into an automated electrostatic sprayer equipped with an atomizing nozzle and they served as stock solutions for which lower dilutions were made in 50% acetone:50% water (v/v). A nonionic surfactant (Kinetic®) was included in the solution at a volume of 0.01% (v/v).
(§2) Cotton plants were grown 2 plants to a pot and selected for treatment at the cotyledon stage. Test solutions were sprayed onto the foliage by an automated electrostatic plant sprayer equipped with an atomizing spray nozzle. The plants were dried in the sprayer fume hood and then removed from the sprayer. Each pot was placed into perforated plastic bags with a zip closure. About 10 to 11 budworm larvae were placed into the bag and the bags zipped closed. Test plants were maintained in a growth room at about 25° C. and about 20-40% relative humidity for 4 days, avoiding direct exposure to fluorescent light (24 hour photoperiod) to prevent trapping of heat inside the bags. Mortality and reduced feeding were assessed 4 days after treatment, compared to untreated control plants.

[2] = tested on: Boll Weevil (Anthonomus grandis); experiment: Boll weevil insect diet microtiter test; settings: 120 h, 5 days, eggs on sprayed insect diet, read-out: mortality (egg and larval) in comparison with untreated controls
Method: B.8 Boll Weevil (Anthonomus grandis)
For evaluating control of boll weevil (Anthonomus grandis) the test unit consisted of 24-well-microtiter plates containing an insect diet and 20-30 A. grandis eggs.
The compounds were formulated using a solution containing 75% v/v water and 25% v/v DMSO. Different concentrations of formulated compounds were sprayed onto the insect diet at 20 μl, using a custom built micro atomizer, at two replications.
After application, microtiter plates were incubated at about 23±1° C. and about 50±5% relative humidity for 5 days. Egg and larval mortality was then visually assessed.

[3] = tested on: Southern Armyworm (Spodoptera eridania); experiment: Southern armyworm lima bean foliar spray test; settings: 96 h, 4 days after treatment, larvae on sprayed lima bean plants, read-out: mortality in comparison with untreated controls
Method: B.5 Southern Armyworm (Spodoptera eridania)
as §1
Lima bean plants (variety Sieva) were grown 2 plants to a pot and selected for treatment at the 1st true leaf stage. Test solutions were sprayed onto the foliage by an automated electrostatic plant sprayer equipped with an atomizing spray nozzle. The plants were dried in the sprayer fume hood and then removed from the sprayer. Each pot was placed into perforated plastic bags with a zip closure. About 10 to 11 armyworm larvae were placed into the bag and the bags zipped closed. Test plants were maintained in a growth room at about 25° C. and about 20-40% relative humidity for 4 days, avoiding direct exposure to fluorescent light (24 hour photoperiod) to prevent trapping of heat inside the bags. Mortality and reduced feeding were assessed 4 days after treatment, compared to untreated control plants.

[4] = tested on: Cowpea Aphid (Aphis craccivora); experiment: Cowpea aphid spray test on potted cowpea plants; settings: assessed after 72 hours, sprayed cowpea plants, read-out: mortality in comparison with untreated controls
Method: B.1 Cowpea Aphid (Aphis craccivora)
The active compound is dissolved at the desired concentration in a mixture of 1:1 (vol:vol) distilled water:acetone. Surfactant (Alkamuls® EL 620) is added at a rate of 0.1% (vol/vol). The test solution is prepared at the day of use.
Potted cowpea plants were colonized with approximately 50-100 aphids of various stages by manually transferring a leaf tissue cut from infested plant 24 hours before application. Plants were sprayed after the pest population has been recorded. Treated plants are maintained on light carts at about 28° C. Percent mortality was assessed after 72 hours

[5] = tested on: Tobacco Budworm (Heliothis virescens); experiment: Tobacco budworm I (B.7a) cotton plant spray test; settings: 96 h, 4 days after treatment, larvae on sprayed cotton plants (B.7a), read-out: mortality in comparison with untreated controls
Method: B.7a Tobacco Budworm (Heliothis virescens) I
as §1, §2

[6] = tested on: Vetch Aphid (Megoura viciae); experiment: Vetch aphid broad bean leaf disk microtiter test; settings: foliar, 120 h, 5 days, adult aphids on sprayed broad bean leaf disks, read-out: mortality in comparison with untreated controls
Method: B.6 Vetch Aphid (Megoura viciae)
For evaluating control of vetch aphid (Megoura viciae) through contact or systemic means the test unit consisted of 24-well-microtiter plates containing broad bean leaf disks.
The compounds were formulated using a solution containing 75% v/v water and 25% v/v DMSO. Different concentrations of formulated compounds were sprayed onto the leaf disks at 2.5 μl, using a custom built micro atomizer, at two replications.
After application, the leaf disks were air-dried and 5-8 adult aphids placed on the leaf disks inside the microtiter plate wells. The aphids were then allowed to suck on the treated leaf disks and incubated at about 23±1° C. and about 50±5% relative humidity for 5 days. Aphid mortality and fecundity was then visually assessed.

[7] = tested on: Colorado Potato Beetle (Leptinotarsa decemlineata); experiment: Colorado potato beetle eggplant foliage spray test; settings: foliar, 96 h, 4 days after treatment, larvae on sprayed eggplant foliage, read-out: mortality in comparison with untreated controls
Method: B.9 Colorado Potato Beetle (Leptinotarsa decemlineata)
as §1
Eggplants were grown 2 plants to a pot and were selected for treatment at the 1st true leaf stage. Test solutions were sprayed onto the foliage by an automated electrostatic plant sprayer equipped with an atomizing spray nozzle. The plants were dried in the sprayer fume hood and then removed from the sprayer. The treated foliage was then cut and removed from the pot and placed in a Petri dish lined with moistened filter pa-per. Five beetle larvae were introduced into each Petri dish and the dish was covered by a Petri dish lid. Petri dishes were maintained in a growth room at about 25° C. and about 20-40% relative humidity for 4 days, avoiding direct exposure to fluorescent light (24 hour photoperiod) to prevent trapping of heat inside the dishes. Mortality and reduced feeding were assessed 4 days after treatment, compared to untreated control plants.

[8] = tested on: Orchid Thrips (Dichromothrips corbetti); experiment: Orchid thrips floral-immersion test; settings: 72 hours after treatment, adult thrips on dipped orchid flowers, read-out: mortality in comparison with untreated controls
Method: B.3 Orchid Thrips (Dichromothrips corbetti)
Dichromothrips corbetti adults used for bioassay were obtained from a colony maintained continuously under laboratory conditions. For testing purposes, the test compound is diluted in a 1:1 mixture of acetone:water (vol:vol), plus 0.01% vol/vol Alkamuls® EL 620 surfactant.
Thrips potency of each compound was evaluated by using a floral-immersion technique. Plastic petri dishes were used as test arenas. All petals of individual, intact orchid flowers were dipped into treatment solution and allowed to dry. Treated flowers were placed into individual petri dishes along with about 20 adult thrips. The petri dishes were then covered with lids. All test arenas were held under continuous light and a temperature of about 28° C. for duration of the assay. After 3 days, the numbers of live thrips were counted on each flower, and along inner walls of each petri dish. The percent mortality was recorded 72 hours after treatment.

[9] = tested on: Diamond Back Moth (Plutella xylostella); experiment: Diamond back moth cabbage leaf dip test; settings: foliar, 72 hours after treatment, 3rd instar larvae on dipped cabbage leaves, read-out: mortality in comparison with untreated controls
Method: B.2 Diamond Back Moth (Plutella xylostella)
The active compound is dissolved at the desired concentration in a mixture of 1:1 (vol:vol) distilled water:aceteone. Surfactant (Alkamuls® EL 620) is added at a rate of 0.1% (vol/vol).The test solution is prepared at the day of use.
Leaves of cabbage were dipped in test solution and air-dried. Treated leaves were placed in petri dish eslined with moist filter paper and inoculated with ten 3rd instar larvae. Mortality was recorded 72 hours after treatment. Feeding damages were also recorded using a scale of 0-100%.

CCS(CC1CC1)=NC(=O)c1cc(Cl)cc(C)c1NC(=O)c1cc(C(F)(F)F)nn1-c1ncccc1Cl (stereo not drawn) [Compound 1, 2-(3-chloro-2-pyridyl)-N-[2-methyl-4-chloro-6-[(cyclopropylmethyl-ethyl-λ^4-sulfanylidene)carbamoyl]phenyl]-5-(trifluoromethyl)pyrazole-3-carboxamide]
≥ 75%: mortality at 10 ppm [1] | mortality at 2500 ppm [2] | mortality at 1 ppm [3] | mortality at 300 ppm [4] | mortality at 2500 ppm [5] | mortality at 2500 ppm [6] | mortality at 10 ppm [7] | mortality at 300 ppm [8] | mortality at 300 ppm [9]
